Measurements reported in US20070167631A1, “Novel herbicides” (priority 2003, published 2007).

How the values were obtained:
Type in all cases: in vivo
Digitaria = assay: Pre-emergence herbicidal action (Example B1); conditions: 250 g/ha, after 4 weeks, rating scale 10=total damage, 0=no action
Procedure: (§1) Monocotyledonous and dicotyledonous test plants are sown in standard soil in pots or seed trays. Immediately after sowing, the test compounds, in the form of an aqueous suspension (prepared from a wettable powder (Example F3, b) according to WO 97/34485) or in the form of an emulsion (prepared from an emulsifiable concentrate (Example F1, c) according to WO 97/34485), are applied by spraying in a concentration of 250 g/ha. The test plants are then grown in a greenhouse under optimum conditions. After a test duration of 4 weeks, the test is evaluated in accordance with a scale of eleven ratings (10=total damage, 0=no action). Ratings of from 10 to 7 (especially from 10 to 8) indicate very good to good herbicidal action.

Echinochloa [1] = assay: Pre-emergence herbicidal action (Example B1); conditions: 250 g/ha, after 4 weeks, rating scale 10=total damage, 0=no action
Procedure: as §1

Chenopodium [2] = assay: Pre-emergence herbicidal action (Example B1); conditions: 250 g/ha, after 4 weeks, rating scale 10=total damage, 0=no action
Procedure: as §1

Amaranthus [3] = assay: Pre-emergence herbicidal action (Example B1); conditions: 250 g/ha, after 4 weeks, rating scale 10=total damage, 0=no action
Procedure: as §1

Panicum [4] = assay: Pre-emergence herbicidal action (Example B1); conditions: 250 g/ha, after 4 weeks, rating scale 10=total damage, 0=no action
Procedure: as §1

Abutilon = assay: Pre-emergence herbicidal action (Example B1); conditions: 250 g/ha, after 4 weeks, rating scale 10=total damage, 0=no action
Procedure: as §1

Euphorbia = assay: Post-emergence herbicidal action (Example B2); conditions: 250 g/ha, after about 18 days, rating scale 10=total damage, 0=no action
Text: (§2) Monocotyledonous and dicotyledonous test plants are cultivated in a greenhouse in standard soil in plastic pots and, at the 4- to 6-leaf stage, are sprayed with an aqueous suspension of the test compounds of formula I prepared from a 25% wettable powder (Example F3, b) according to WO 97/34485) or with an emulsion of the test compounds of formula I prepared from a 25% emulsifiable concentrate (Example F1, c) according to WO 97/34485), corresponding to concentrations of 125 and 250 g of active ingredient per hectare (500 litres of water per ha). The test plants are then grown on in the greenhouse under optimum conditions. After a test duration of about 18 days, the test is evaluated in accordance with a scale of eleven ratings (10=total damage, 0=no action). Ratings of from 10 to 7 (especially from 10 to 8) indicate very good to good herbicidal action.

Xanthium = assay: Post-emergence herbicidal action (Example B2); conditions: 250 g/ha, after about 18 days, rating scale 10=total damage, 0=no action
Text: as §2

Echinochloa [5] = assay: Post-emergence herbicidal action (Example B2); conditions: 250 g/ha, after about 18 days, rating scale 10=total damage, 0=no action
Text: as §2

Chenopodium [6] = assay: Post-emergence herbicidal action (Example B2); conditions: 250 g/ha, after about 18 days, rating scale 10=total damage, 0=no action
Text: as §2

Amaranthus [7] = assay: Post-emergence herbicidal action (Example B2); conditions: 250 g/ha, after about 18 days, rating scale 10=total damage, 0=no action
Text: as §2

Panicum [8] = assay: Post-emergence herbicidal action (Example B2); conditions: 250 g/ha, after about 18 days, rating scale 10=total damage, 0=no action
Text: as §2

Stellaria = assay: Post-emergence herbicidal action (Example B2); conditions: 250 g/ha, after about 18 days, rating scale 10=total damage, 0=no action
Text: as §2

Scirpus = assay: Pre-emergence herbicidal action (Example B1); conditions: 250 g/ha, after 4 weeks, rating scale 10=total damage, 0=no action
Procedure: as §1

Compound	Pre-emergence action: Digitaria (Digitaria)	Pre-emergence action: Echinochloa (Echinochloa [1])	Pre-emergence action: Chenopodium (Chenopodium [2])	Pre-emergence action: Amaranthus (Amaranthus [3])	Pre-emergence action: Panicum (Panicum [4])	Pre-emergence action: Abutilon (Abutilon)	Post-emergence action: Euphorbia (Euphorbia)	Post-emergence action: Xanthium (Xanthium)	Post-emergence action: Echinochloa (Echinochloa [5])	Post-emergence action: Chenopodium (Chenopodium [6])	Post-emergence action: Amaranthus (Amaranthus [7])	Post-emergence action: Panicum (Panicum [8])	Post-emergence action: Stellaria (Stellaria)	Pre-emergence action: Scirpus (Scirpus)
CCC(=O)N(C)c1nc(C(=O)C2=C(O)C(C)(C)C(=O)C(C)(C)C2=O)ccc1C(F)(F)F [Compound 2.089]	8	8	0	8	9	9	8	7	7	9	0	8	8	
O=C1CCCC(O)=C1C(=O)c1ccc(C(F)(F)F)c(N2CCOCC2)n1 [Compound 1.073]	10	10	10	6	10	10	9	9	9	8	10	10	9	
CC1(C)C(=O)C(C(=O)c2ccc(C(F)(F)F)c(C3(C)OCCO3)n2)=C(O)C(C)(C)C1=O [Compound 2.191]	7	10	9	7	10	10	8	8	8	7	3	9	10	3
Cc1nc(C(=O)C2=C(O)C(C)(C)C(=O)C(C)(C)C2=O)ccc1C(F)(F)F [Compound 2.203]	5	9		9	6	10	9	9	9	6	6	9	9	8
CC1CCC(O)=C(C(=O)c2ccc(C(F)(F)F)c(N3CCOCC3)n2)C1=O (stereo not shown) [Compound 3.071]	10	10	6	8	10	9	7	8	8	10	8	9	8	8
CC1(C)C(=O)C(C(=O)c2ccc(C(F)(F)F)c(N3CCSCC3)n2)=C(O)C(C)(C)C1=O [Compound 2.078]	10	10	10	8	10	10	7	7	8	10	7	5	10	0
CN(C)c1nc(C(=O)C2=C(O)C(C)(C)C(=O)C(C)(C)C2=O)ccc1C(F)(F)F [Compound 2.059]	7	8	9	7	7	10	6	7	8	10	7	5	8	
CC1CN(c2nc(C(=O)C3=C(O)CCCC3=O)ccc2C(F)(F)F)CC(C)O1 (stereo not shown) [Compound 1.075]	10	10	9	10	10	9	8	7	8	10	10	10	8	7
CC1(C)C(=O)C(C(=O)c2ccc(C(F)(F)F)c(N3CCOCC3)n2)=C(O)C(C)(C)C1=O [Compound 2.073]	7	9	9	9	10	9	9	9	9	8	9	9	7	4
COC(COc1nc(C(=O)C2=C(O)CCCC2=O)ccc1C(F)(F)F)OC [Compound 1.012]	9	5	0	5	10	10	9	8	8	8	9	7	7	7
CC1(C)CCC(O)=C(C(=O)c2ccc(C(F)(F)F)c(N3CCOCC3)n2)C1=O [Compound 3.072]	10	10	8	3	9	9	7	8	7	9	7	8	8	7
CC1CC(O)=C(C(=O)c2ccc(C(F)(F)F)c(N3CCOCC3)n2)C(=O)C1(C)C (stereo not shown) [Compound 3.073]	9	7	7	0	10	5	7	7	8	9	4	7	7	7
CC1(C)C(=O)C(C(=O)c2ccc(C(F)(F)F)c(OC3CCOC3)n2)=C(O)C(C)(C)C1=O (stereo not shown) [Compound 2.021]	3	0	9	7	9	9	9	8	9	8	9	9	7	7
CC(=O)N(C)c1nc(C(=O)C2=C(O)C(C)(C)C(=O)C(C)(C)C2=O)ccc1C(F)(F)F [Compound 2.088]	9	7	7		9	9								0
